Measurements: patent publication US11504365B2 (AVEO Pharmaceuticals, Inc., priority 2018, dated 2022)
Read-outs that look alike come from different tables or passages of the source.

How the values were obtained:
[1] = system: refractory advanced renal cell carcinoma (RCC)
Excerpt: (§1) The randomization of subjects was stratified according to the International Metastatic Renal Cell Carcinoma Database Consortium (IMDC) risk category (favorable, intermediate, poor) and according to prior therapy which could be: 1) two prior VEGFR TKIs; 2) a check point inhibitor (e.g., a PD-1 or PDL-1 inhibitor) and a prior VEGFR TKI; or 3) a VEGFR TKI plus any other systemic agent. Once the strata were identified, treatment was randomly assigned to a subject with the strata using a complete permuted block design in an unblended fashion (open-label).
Cycles were repeated every 4 weeks.
(§2) Subjects were analyzed as randomized • 2. […] Subjects were analyzed as treated. • 3. […] Subjects were analyzed as treated.
(§3) The primary efficacy endpoint (PFS) and secondary efficacy endpoints (OS, ORR, and DoR) analyses were carried out using the ITT population. The primary efficacy endpoint of PFS also was analyzed using the PP population.
(§4) The IRR was the primary data source for the PFS analysis.
(§5) The primary analysis was carried out by using a stratified Log-Rank test, in which the stratification factors were IMDC risk category (favorable; intermediate; poor) and prior therapy (two prior VEGFR TKIs; a prior checkpoint inhibitor (PD-1 or PD1 L inhibitor) plus a prior VEGFR TKI; a prior VEGFR TKI plus any other systemic agent), and using a two-sided 5% significance level. The distribution of the PFS was estimated using the Kaplan-Meier method.
(§6) The DoR was analyzed using the same method as the progression-free survival analysis. DoR was only calculated for the subgroup of subjects with an objective tumor response (PR or CR).

[2] = system: refractory advanced renal cell carcinoma (RCC); assay: Randomized open-label Phase 3 study of tivozanib versus sorafenib, efficacy (PFS, OS, ORR, DoR); settings: for median PFS: ITT population, independent radiologic review, stratified log rank p-value 0.0165; for median OS: ITT, two years after final patient enrollment, stratified log rank p-value 0.9501; for median PFS, subset receiving a prior check point inhibitor: prior checkpoint inhibitor at any time, tivozanib n=52, sorafenib n=46, unstratified Log-rank p-value 0.0616; for duration of response (DoR), 1st quartile: subjects with objective tumor response (PR or CR), not statistically significant; for 1-year probability of survival: subjects with prior checkpoint inhibitor, FIG. 5 (Kaplan-Meier analysis of IRR PFS)
Excerpt: as §1
Cycles were repeated every 4 weeks.
as §2, §3, §4, §5, §6

[3] = 1.5 mg/day, 3 weeks on, 1 week off, cited from earlier work
[4] = cited from earlier work
[5] = prior phase III clinical trial; cited from earlier work
[6] = subjects with prior therapy with a VEGFR TKI plus any other systemic agent
[7] = subjects with prior therapy with a checkpoint inhibitor and a prior VEGF TKI
[8] = subjects with prior therapy with two VEGFR TKIs

SMILES | ORR (CR + PR) [1] | median PFS [2] | median OS [2] | median PFS, subset receiving a prior check point inhibitor [2] | duration of response (DoR), 1st quartile [2] | 1-year probability of survival [2] | ORR [2, 6] | ORR [2, 7] | ORR [2, 8] | study subjects requiring a dose interruption ([3]; 8/272 subjects) | study subjects requiring a dose reduction ([3]; 23/272 subjects) | subjects experiencing a dose limiting toxicity (DLT) ([4]; 2 mg/day tivozanib group) | maximum tolerated dose (MTD) ([4]; previous study KRN951/03-B01) | reversibility of toxicities upon stopping treatment ([4]; previous study KRN951/03-B01) | treatment interruptions and dose reductions due to AEs, compared with sorafenib [5] | difference in OS between tivozanib and sorafenib in subgroup analyses ([2]; ITT subgroups, Cox Model hazard ratios with 95% confidence intervals) | ORR (CR + PR) ([2]; all subjects, 31 PR/172 tivozanib, 14 PR/175 sorafenib) | difference in OS between the two treatment groups ([2]; subset with prior checkpoint inhibitor, unstratified Log-rank p-value 0.8360)
CNC(=O)c1cc(Oc2ccc(NC(=O)Nc3ccc(Cl)c(C(F)(F)F)c3)cc2)ccn1 [sorafenib, reference compound] | 8.0% | 3.88 months | 19.65 months | 5.91 months | 5.55 months | 0.05 | 9.8% | 6.8% | 7.5% | – | – | – | – | – | – | – | – | –
COc1cc2nccc(Oc3ccc(NC(=O)Nc4cc(C)on4)c(Cl)c3)c2cc1OC [tivozanib, N-{2-chloro-4-[(6,7-dimethoxy-4-quinolyl)oxy]-phenyl}-N′-(5-methyl-3-isoxazolyl)urea] | – | 5.59 months | 16.39 months | 7.29 months | 9.79 months | 0.37 | 16.7% | 24.4% | 15.2% | 2.9% | 8.5% | 3 of 8 | 1.5 mg/day | rapidly reversible | fewer treatment interruptions and dose reductions due to AEs | do not indicate a statistically significant difference in OS | 18.0% | no statistically significant differences
